Measurements published in US7432342B2, “Kinase anchor protein muteins, peptides thereof and related documents” (Sequenom, Inc., priority 2002, dated 2008).
Ends that are not written are not given here. Peptide text beside a SMILES is read from it. * marks the point of attachment. X1 = CN(C)c1ccc2c(c1)Oc1cc(N(C)C)ccc1C21OC(=O)c2cc(N3C(=O)CC(*)C3=O)ccc21

Legend:
[1] = molecular target: T1, full-length RIIα (Mus musculus, UniProt P12367); assay: Fluorescence anisotropy binding assay (Example 9); design: species or system murine; conditions: for Kd: Table 8, truncated and substituted peptides, read-out: KD (nM) Rllα; for binding to RIIα, in words: compared with the unsubstituted peptide
T1 construct: Full-length murine RIIα was expressed in E. coli BL21 (DE3); made in house; host or cells: E. coli BL21 (DE3)
T1 sequence (P12367 whole entry, the tested form may be a part): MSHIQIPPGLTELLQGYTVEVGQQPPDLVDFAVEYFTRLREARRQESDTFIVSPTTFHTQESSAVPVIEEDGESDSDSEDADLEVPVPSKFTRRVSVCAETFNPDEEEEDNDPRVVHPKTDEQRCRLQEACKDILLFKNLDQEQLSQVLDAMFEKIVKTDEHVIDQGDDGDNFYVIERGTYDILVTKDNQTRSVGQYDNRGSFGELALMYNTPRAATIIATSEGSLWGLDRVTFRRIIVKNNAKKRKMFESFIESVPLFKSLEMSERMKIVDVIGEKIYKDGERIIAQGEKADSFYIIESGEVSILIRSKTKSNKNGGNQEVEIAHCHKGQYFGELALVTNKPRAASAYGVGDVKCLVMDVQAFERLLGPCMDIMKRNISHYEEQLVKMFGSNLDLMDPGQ
Experimental: (§1) Each peptide was fluorescently labeled using a 25 mM solution of tetramethylrhodamine-5-maleimide (catalog number T-6027; Molecular Probes, Eugene, Oreg.) dissolved in DMSO. The peptides were labeled by incubating with a three-fold molar excess of the label for 16 hr at 4° C. in 20 mM Tris, pH 7.0 and 1 mM tris-(2-carboxyethyl) phosphine, hydrochloride (TCEP) (non-thiol reducing agent, Molecular Probes). The sample was quenched with 1 mM, β-mercaptoethanol to bind to any unreacted maleimide and diluted with 0.1% TFA for purification by HPLC. The labeled peptides were resolved using a C18 column with a water/acetonitrile gradient containing 0.1% TFA. The concentration of each peptide was determined by absorbance at 541 nm after diluting into 100% methanol and using an extinction coefficient of 91,000 M^−1 cm^−1 for absorbance of the rhodamine label at 541 nm (Molecular Probes Catalog). The peptides were stored at 4° C. in 50% acetonitrile.
(§2) Full-length murine RIIα was expressed in E. coli BL21 (DE3). Full-length bovine RIα was expressed in E. coli 222. The proteins were purified as previously described using a cAMP affinity resin (Hamuro et al. (2002) J. Mol. Biol., 321:703). The protein concentrations were determined using the following extinction coefficients at 280 nm, which were calculated using a standard concentration of protein calibrated using quantitative amino acid analysis: RIα 52,603 M^−1 cm^−1 and RIIα 62,456 M^−1 cm^−1. The proteins were stored at 4° C. in 50 mM MES pH 5.8, 50 mM NaCl, 2 mM EDTA, 2 mM EGTA, 2 mM DTT.
(§3) Binding of each fluorescently labeled peptide to the regulatory subunits was monitored using fluorescence anisotropy. RIα and RIIα were serially diluted beginning at 1 μM and 0.1 μM, respectively, into 10 mM HEPES pH 7.4, 0.15 M NaCl, 3 mM EDTA, 0.005% Surfactant P20 (Biacore) containing either 10 nM or 1 nM of fluorescently labeled peptide for RIα and RIIα, respectively. The samples were equilibrated for at least 1 hour at room temperature and fluorescence anisotropy monitored using a Fluoromax-2 (Jobin Yvon Horiba, SPEX Division, Edison, N.J.) equipped with Glan-Thompson polarizers. The rhodamine-labeled peptide was excited at 541 nm (5-10 nm bandpass) and emission monitored at 575 nm (5-10 nm bandpass). The anisotropy was calculated directly with the Fluoromax software using the following equation: r=(IVV−G*IVH)/(IVV+2G*IVH) (1) where r is the steady state anisotropy, IVV is the fluorescence intensity with the excitation and emission polarizers oriented in the vertical position (0° from normal), IVH is the fluorescence intensity with the excitation polarizer in the vertical position and the emission polarizer oriented in the horizontal position (90°) relative to the excitation polarizer, G is the monochromator grating factor which is equal to (IHV/IHH), with the first subscript indicating the position of the excitation polarizer and the second subscript indicating position of the emission polarizer. Three separate binding experiments were averaged and fit to a 1:1 binding model using the non-linear regression application in GraphPad Prism version 3.00 (GraphPad Software, San Diego, Calif.).

[2] = molecular target: T2, full-length RIα (Bos taurus, UniProt P00514); assay: Fluorescence anisotropy binding assay (Example 9); design: species or system bovine; conditions: for Kd: Table 8, truncated and substituted peptides, read-out: KD (nM) Rlα; for binding to RIα, in words: compared with the unsubstituted peptide
T2 construct: Full-length bovine RIα was expressed in E. coli 222; made in house; host or cells: E. coli 222
T2 sequence (P00514 whole entry, the tested form may be a part): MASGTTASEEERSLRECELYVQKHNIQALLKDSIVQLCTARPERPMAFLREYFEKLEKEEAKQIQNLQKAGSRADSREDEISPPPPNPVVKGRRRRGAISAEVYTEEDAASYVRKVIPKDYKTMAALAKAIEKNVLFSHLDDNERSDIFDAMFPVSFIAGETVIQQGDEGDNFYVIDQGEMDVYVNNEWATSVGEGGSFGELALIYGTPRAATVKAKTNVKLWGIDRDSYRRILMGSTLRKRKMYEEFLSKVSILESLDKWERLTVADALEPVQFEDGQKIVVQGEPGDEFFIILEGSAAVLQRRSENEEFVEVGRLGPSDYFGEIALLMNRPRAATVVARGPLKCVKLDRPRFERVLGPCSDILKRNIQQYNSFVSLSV
Experimental: as §1, §2, §3

Row | Kd [1] [nM] | Kd [2] [nM] | binding to RIIα, in words [1] | binding to RIα, in words [2] | Compound
1 | 150 | 19 |  |  | CC[C@H](C)[C@H](NC(=O)[C@H](CCCCN)NC(=O)[C@H](Cc1c[nH]c2ccccc12)NC(=O)[C@H](C)NC(=O)[C@H](CC(C)C)NC(=O)[C@H](CCC(=O)O)NC(=O)[C@H](CCC(=O)O)NC(=O)[C@@H](N)Cc1ccccc1)C(=O)N[C@@H](C)C(=O)N[C@@H](CCCCN)C(=O)N[C@@H](CCSC)C(=O)N[C@H](C(=O)N[C@@H](Cc1c[nH]c2ccccc12)C(=O)N[C@@H](CO)C(=O)N[C@@H](CC(=O)O)C(=O)N[C@H](C(=O)N[C@@H](CCSC)C(=O)N[C@@H](CCC(N)=O)C(=O)N[C@@H](CCC(N)=O)C(=O)N[C@@H](CSC1CC(=O)N(c2ccc3c(c2)C(=O)OC32c3ccc(N(C)C)cc3Oc3cc(N(C)C)ccc32)C1=O)C(N)=O)C(C)C)[C@@H](C)CC (stereo partly shown) [PV-37] (H-FEELAWKIAKMIWSDVMQQC(X1)-NH2)
2 | 89 | 39 |  |  | CC[C@H](C)[C@H](NC(=O)[C@H](CCCCN)NC(=O)[C@H](Cc1c[nH]c2ccccc12)NC(=O)[C@H](C)NC(=O)[C@H](Cc1ccccc1)NC(=O)[C@H](CCC(=O)O)NC(=O)[C@H](CCC(=O)O)NC(=O)[C@@H](N)CCC(N)=O)C(=O)N[C@@H](C)C(=O)N[C@@H](CCCCN)C(=O)N[C@@H](CCSC)C(=O)N[C@H](C(=O)N[C@H](C(=O)N[C@@H](CO)C(=O)N[C@@H](CC(=O)O)C(=O)N[C@H](C(=O)N[C@@H](Cc1ccccc1)C(=O)N[C@@H](CCC(N)=O)C(=O)N[C@@H](CCC(N)=O)C(=O)N[C@@H](CSC1CC(=O)N(c2ccc3c(c2)C(=O)OC32c3ccc(N(C)C)cc3Oc3cc(N(C)C)ccc32)C1=O)C(N)=O)C(C)C)C(C)C)[C@@H](C)CC (stereo partly shown) [PV-47] (H-QEEFAWKIAKMIVSDVFQQC(X1)-NH2)
3 | 124 | 12 |  |  | CC[C@H](C)[C@H](NC(=O)[C@H](CCCCN)NC(=O)[C@H](Cc1c[nH]c2ccccc12)NC(=O)[C@H](C)NC(=O)[C@H](Cc1ccccc1)NC(=O)[C@H](CCC(=O)O)NC(=O)[C@H](CCC(=O)O)NC(=O)[C@@H](N)CCC(N)=O)C(=O)N[C@@H](C)C(=O)N[C@@H](CCCCN)C(=O)N[C@@H](CCSC)C(=O)N[C@H](C(=O)N[C@H](C(=O)N[C@@H](CO)C(=O)N[C@@H](CC(=O)O)C(=O)N[C@H](C(=O)N[C@@H](Cc1ccccc1)C(=O)N[C@@H](CCC(N)=O)C(=O)N[C@@H](CCC(N)=O)C(=O)N[C@@H](CSC1CC(=O)N(c2ccc3c(c2)C(=O)OC32c3ccc(N(C)C)cc3Oc3cc(N(C)C)ccc32)C1=O)C(N)=O)C(C)C)[C@@H](C)CC)[C@@H](C)CC (stereo partly shown) [PV-48] (H-QEEFAWKIAKMIISDVFQQC(X1)-NH2)
4 | 2.5 | 1.1 |  |  | CC[C@H](C)[C@H](NC(=O)[C@H](CCCCN)NC(=O)[C@H](Cc1c[nH]c2ccccc12)NC(=O)[C@H](C)NC(=O)[C@H](CC(C)C)NC(=O)[C@H](CCC(=O)O)NC(=O)[C@H](CCC(=O)O)NC(=O)[C@@H](N)Cc1ccccc1)C(=O)N[C@@H](C)C(=O)N[C@@H](CCCCN)C(=O)N[C@@H](CCSC)C(=O)N[C@H](C(=O)N[C@H](C(=O)N[C@@H](CO)C(=O)N[C@@H](CC(=O)O)C(=O)N[C@H](C(=O)N[C@@H](Cc1ccccc1)C(=O)N[C@@H](CCC(N)=O)C(=O)N[C@@H](CCC(N)=O)C(=O)N[C@@H](CSC1CC(=O)N(c2ccc3c(c2)C(=O)OC32c3ccc(N(C)C)cc3Oc3cc(N(C)C)ccc32)C1=O)C(N)=O)C(C)C)[C@@H](C)CC)[C@@H](C)CC (stereo partly shown) [PV-49] (H-FEELAWKIAKMIISDVFQQC(X1)-NH2)
5 | 83 | 120 |  |  | CC[C@H](C)[C@H](NC(=O)[C@H](CCCCN)NC(=O)[C@H](Cc1c[nH]c2ccccc12)NC(=O)[C@H](C)NC(=O)[C@H](CC(C)C)NC(=O)[C@H](CCC(=O)O)NC(=O)[C@H](CCC(=O)O)NC(=O)[C@H](CCC(N)=O)NC(=O)[C@H](C)NC(=O)[C@H](CCC(=O)O)NC(=O)[C@H](CC(=O)O)NC(=O)[C@@H](NC(=O)[C@H](CC(N)=O)NC(=O)CNC(=O)[C@H](CCC(N)=O)NC(=O)[C@@H](N)C(C)C)[C@@H](C)O)C(=O)N[C@@H](C)C(=O)N[C@@H](CCCCN)C(=O)N[C@@H](CCSC)C(=O)N[C@H](C(=O)N[C@@H](Cc1c[nH]c2ccccc12)C(=O)N[C@@H](CO)C(=O)N[C@@H](CC(=O)O)C(=O)N[C@H](C(=O)N[C@@H](CCSC)C(=O)N[C@@H](CCC(N)=O)C(=O)N[C@@H](CCC(N)=O)C(=O)N[C@@H](CSC1CC(=O)N(c2ccc3c(c2)C(=O)OC32c3ccc(N(C)C)cc3Oc3cc(N(C)C)ccc32)C1=O)C(N)=O)C(C)C)[C@@H](C)CC (stereo partly shown) [SEQ ID NO:111] (H-VQGNTDEAQEELAWKIAKMIWSDVMQQC(X1)-NH2)
6 | 107 | 773 |  |  | CC[C@H](C)[C@H](NC(=O)[C@H](CCCCN)NC(=O)[C@H](Cc1c[nH]c2ccccc12)NC(=O)[C@H](C)NC(=O)[C@H](CC(C)C)NC(=O)[C@H](CC(=O)O)NC(C)=O)C(=O)N[C@@H](C)C(=O)N[C@@H](CCCCN)C(=O)N[C@@H](CCSC)C(=O)N[C@H](C(=O)N[C@H](C(=O)N[C@@H](CO)C(=O)N[C@@H](CC(=O)O)C(=O)N[C@H](C(=O)N[C@@H](CCSC)C(=O)N[C@@H](CCC(N)=O)C(=O)N[C@@H](CCC(N)=O)C(=O)N[C@@H](CSC1CC(=O)N(c2ccc3c(c2)C(=O)OC32c3ccc(N(C)C)cc3Oc3cc(N(C)C)ccc32)C1=O)C(N)=O)C(C)C)C(C)C)[C@@H](C)CC (stereo partly shown) [SEQ ID NO:112, Ac-DLAWKIAKMIVSDVMQQC] (Ac-DLAWKIAKMIVSDVMQQC(X1)-NH2)
7 |  |  | reduced binding | reduced binding | Ac-DLAWKIAKMIVSDVMQQ (listed as Homo sapiens) [SEQ ID NO:102]
8 |  |  | weakly | binds tightly | VQGNTDEAQEELAWKIAKMIWSD[I/V]MQQ [SEQ ID NO:54]
